Publication PMC11396129, “Oxindole–benzothiazole hybrids as CDK2 inhibitors and anticancer agents: design, synthesis and biological evaluation” (BMC Chemistry, 2024)

Columns and labels:
DU-145 = assay: NCI 60 panel growth inhibition (SRB), prostate cancer; format: cell-based, human; conditions: DU-145, 10 μM
Experimental: (§1) Screening of cytotoxic activity against a panel of sixty human tumor cell lines The selected compounds by NCI were evaluated for their anticancer activity in a two- stage process. […] Then, the output from the single dose screen is reported as a mean graph. […] Assay protocol. […] For a typical screening experiment, cells are inoculated into 96 well microtiter plates in 100 µL at plating densities ranging from 5000 to 40,000 cells/well depending on the doubling time of individual cell lines. […] After 24 h, two plates of each cell line are fixed in situ with TCA, to represent a measurement of the cell population for each cell line at the time of drug addition (Tz). The experimental drugs are solubilized in dimethyl sulfoxide at 400-fold the desired final maximum test concentration and stored frozen prior to use. At the time of drug addition, an aliquot of frozen concentrate is thawed and diluted to twice the desired final maximum test concentration with complete medium containing 50 µg/mL gentamicin. Additional four, 10-fold or ½ log serial dilutions are made to provide a total of five drug concentrations plus control. […] For adherent cells, the assay is terminated by the addition of cold TCA. […] The supernatant is discarded, and the plates are washed five times with tap water and air dried. […] Using the seven absorbance measurements [time zero, (Tz), control growth, (C), and test growth in the presence of drug at the five concentration levels (Ti)], the percentage growth is calculated at each of the drug concentrations levels. Percentage growth inhibition is calculated as: [(Ti Tz)/(C–Tz)] x 100 for concentrations for which Ti>/=Tz and [(Ti-Tz)/Tz] x 100 for concentrations for which Ti < Tz. Three dose response parameters are calculated for each experimental agent. […] The drug concentration resulting in total growth inhibition (TGI) is calculated from Ti = Tz. […] Values are calculated for each of these three parameters if the level of activity is reached; however, if the effect is not reached or is exceeded, the value for that parameter is expressed as greater or less than the maximum or minimum concentration tested.

PC-3 = assay: as above; format: cell-based, human; conditions: PC-3, 10 μM
Experimental: as §1

U251 = assay: NCI 60 panel growth inhibition (SRB), CNS cancer; format: cell-based, human; conditions: U251, 10 μM
How it was run: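 Selected compounds progressed from a single-dose mean-graph screen to five-concentration testing. Percentage growth, with negative values indicating cell kill below Tz, was computed per level, giving TGI among three parameters.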

CCRF-CEM = assay: NCI 60 panel growth inhibition (SRB), leukemia; format: cell-based, human; conditions: 10 μM
Experimental: as §1

HL-60(TB) = assay: NCI 60 panel growth inhibition (SRB), leukemia; format: cell-based, human; conditions: HL-60(TB), 10 μM
Experimental: as §1

SR = assay: NCI 60 panel growth inhibition (SRB), leukemia; format: cell-based, human; conditions: 10 μM
Experimental: as §1

K-562 = assay: NCI 60 panel growth inhibition (SRB), leukemia; format: cell-based, human; conditions: K-562, 10 μM
Experimental: as §1

RPMI-8226 = assay: NCI 60 panel growth inhibition (SRB), leukemia; format: cell-based, human; conditions: RPMI-8226, 10 μM
Experimental: as §1

MOLT-4 = assay: NCI 60 panel growth inhibition (SRB), leukemia; format: cell-based, human; conditions: MOLT-4, 10 μM
Experimental: as §1

IGROV1 = assay: NCI 60 panel growth inhibition (SRB), ovarian cancer; format: cell-based, human; conditions: IGROV1, 10 μM
Experimental: as §1

OVCAR-8 = assay: as above; format: cell-based, human; conditions: OVCAR-8, 10 μM
Experimental: as §1

OVCAR-4 = assay: as above; format: cell-based, human; conditions: OVCAR-4, 10 μM
Experimental: as §1

NCI/ADR-RES = assay: as above; format: cell-based, human; conditions: 10 μM
Experimental: as §1

OVCAR-3 = assay: as above; format: cell-based, human; conditions: OVCAR-3, 10 μM
Experimental: as §1

SK-OV-3 = assay: as above; format: cell-based, human; conditions: SK-OV-3, 10 μM
Experimental: as §1

OVCAR-5 = assay: as above; format: cell-based, human; conditions: OVCAR-5, 10 μM
Experimental: as §1

NCI-H226 = assay: NCI 60 panel growth inhibition (SRB), non-small cell lung cancer; format: cell-based, human; conditions: NCI-H226, 10 μM
Experimental: as §1

NCI-H322M = assay: as above; format: cell-based, human; conditions: 10 μM
Experimental: as §1

HOP-62 = assay: as above; format: cell-based, human; conditions: HOP-62, 10 μM
Experimental: as §1

NCI-H522 = assay: as above; format: cell-based, human; conditions: NCI-H522, 10 μM
Experimental: as §1

NCI-H460 = assay: as above; format: cell-based, human; conditions: NCI-H460, 10 μM
Experimental: as §1

EKVX = assay: as above; format: cell-based, human; conditions: 10 μM
Experimental: as §1

HOP-92 = assay: as above; format: cell-based, human; conditions: HOP-92, 10 μM
Experimental: as §1

A549/ATCC = assay: as above; format: cell-based, human; conditions: 10 μM
Experimental: as §1

NCI-H23 = assay: as above; format: cell-based, human; conditions: NCI-H23, 10 μM
Experimental: as §1

Row | SMILES | GI% (DU-145) | GI% (PC-3) [%] | GI% (U251) | GI% (CCRF-CEM) [%] | GI% (HL-60(TB)) | GI% (SR) | GI% (K-562) | GI% (RPMI-8226) [%] | GI% (MOLT-4) [%] | melting point [°C] | GI% (IGROV1) | GI% (OVCAR-8) | GI% (OVCAR-4) [%] | GI% (NCI/ADR-RES) | GI% (OVCAR-3) | GI% (SK-OV-3) | GI% (OVCAR-5) | GI% (NCI-H226) [%] | GI% (NCI-H322M) | GI% (HOP-62) | further results
1 | COc1cccc(-c2nc3ccccc3s2)c1OCC(=O)NN=C1C(=O)Nc2ccc(C)cc21 [Compound 9h, 2-(2-(Benzo[d]thiazol-2-yl)-6-methoxyphenoxy)-N′-(5-methyl-2-oxoindolin-3-ylidene)acetohydrazide] | – (GI% < 5%) | 46.62 | 5.89% | 47.56 | – (GI% < 5%) | – (GI% < 5%) | 26.17% | 54.14 | 43.65 | 244 to 246 | 6.64% | 12.04% | 20.46 | 14.65% | – (GI% < 5%) | 14.52% | – (GI% < 5%) | 26.01 | 6.24% | – (GI% < 5%) | GI% (NCI-H522): – (GI% < 5%); GI% (NCI-H460): – (GI% < 5%); GI% (EKVX): 27.92%; GI% (HOP-92): 23.13%; GI% (A549/ATCC): 24.44%; GI% (NCI-H23): 13.40%
2 | COc1cccc(-c2nc3ccccc3s2)c1OCC(=O)NN=C1C(=O)Nc2ccc([N+](=O)[O-])cc21 [Compound 9j, 2-(2-(Benzo[d]thiazol-2-yl)-6-methoxyphenoxy)-N′-(5-nitro-2-oxoindolin-3-ylidene)acetohydrazide] | 6.78% | 18.80 | – (GI% < 5%) | 34.81 | – (GI% < 5%) | – (GI% < 5%) | – (GI% < 5%) | 22.11 | 9.01 | 276 to 278 | – (GI% < 5%) | – (GI% < 5%) | 5.61 | 6.51% | – (GI% < 5%) | – (GI% < 5%) | – (GI% < 5%) | 21.82 | 6.18% | – (GI% < 5%) | GI% (NCI-H522): – (GI% < 5%); GI% (NCI-H460): – (GI% < 5%); GI% (EKVX): 26.64%; GI% (HOP-92): 30.70%; GI% (A549/ATCC): 5.97%; GI% (NCI-H23): 22.82%
3 | O=C(COc1ccccc1-c1nc2ccccc2s1)NN=C1C(=O)Nc2ccccc21 [Compound 9a, 2-(2-(Benzo[d]thiazol-2-yl)phenoxy)-N′-(2-oxoindolin-3-ylidene)acetohydrazide] | 6.07% | 19.26 | – (GI% < 5%) | 20.22 | – (GI% < 5%) | – (GI% < 5%) | – (GI% < 5%) | 21.80 | 8.23 | 238 to 240 | – (GI% < 5%) | – (GI% < 5%) | 13.08 | – (GI% < 5%) | – (GI% < 5%) | – (GI% < 5%) | – (GI% < 5%) | 23.61 | – (GI% < 5%) | – (GI% < 5%) | GI% (NCI-H522): – (GI% < 5%); GI% (NCI-H460): – (GI% < 5%); GI% (EKVX): 37.48%; GI% (HOP-92): 6.37%; GI% (A549/ATCC): 11.63%; GI% (NCI-H23): 6.36%
4 | COc1cccc(-c2nc3ccccc3s2)c1OCC(=O)NN=C1C(=O)Nc2ccccc21 [Compound 9g, 2-(2-(Benzo[d]thiazol-2-yl)-6-methoxyphenoxy)-N′-(2-oxoindolin-3-ylidene)acetohydrazide] | – (GI% < 5%) | 44.41 | 8.36% | 41.07 | 15.30% | 18.95% | 32.23% | 50.80 | 49.06 | 246 to 248 | 7.95% | 10.62% | 27.14 | 28.45% | – (GI% < 5%) | 8.22% | – (GI% < 5%) | 45.16 | 10.24% | – (GI% < 5%) | GI% (NCI-H522): 33.32%; GI% (NCI-H460): – (GI% < 5%); GI% (EKVX): 29.56%; GI% (HOP-92): 34.60%; GI% (A549/ATCC): 16.44%; GI% (NCI-H23): 25.24%
